{"source": "patent US20230284618A1", "about": "“HERBICIDAL COMBINATIONS” (UPL Corporation Limited, priority 2022, published 2023)", "type_in_all_cases": "in vivo", "key": {"Geranium spp.": {"tested_on": "Geranium spp.", "assay": "Pre-emergence bio-efficacy, weed control 85 DAT", "details": "85 days after treatment, G ai: imazamox 105, rimsulfuron 70, pendimethalin 4270, mesotrione 210", "procedure": "(§1) Experiments were carried out to evaluate the bio-efficacy of the herbicidal combinations according to the present disclosure. The herbicides were applied at the pre-emergence stage. The results have been disclosed in Tables 1-5.\n(§2) Weeds: Common Velvetgrass, Broadleaf spp., Red Sorrel, Dandelion, Geranium spp."}, "Dandelion": {"tested_on": "Dandelion", "assay": "Pre-emergence bio-efficacy, weed control 85 DAT", "details": "85 days after treatment, G ai: imazamox 105, rimsulfuron 70, pendimethalin 4270, mesotrione 210", "procedure": "as §1, §2"}, "Red Sorrel": {"tested_on": "Red Sorrel", "assay": "Pre-emergence bio-efficacy, weed control 85 DAT", "details": "85 days after treatment, G ai: imazamox 105, rimsulfuron 70, pendimethalin 4270, mesotrione 210", "procedure": "as §1, §2"}, "Common Ragweed": {"tested_on": "Common Ragweed", "assay": "Pre-emergence bio-efficacy, weed control 27 DAT", "details": "27 days after treatment, G ai: imazamox 105, rimsulfuron 70, pendimethalin 4270, mesotrione 210", "procedure": "as §1\n(§3) Weeds: Giant Foxtail, Common Ragweed, Galinsoga, Yellow Nutsedge"}, "Giant Foxtail": {"tested_on": "Giant Foxtail", "assay": "Pre-emergence bio-efficacy, weed control 27 DAT", "details": "27 days after treatment, G ai: imazamox 105, rimsulfuron 70, pendimethalin 4270, mesotrione 210", "procedure": "as §1, §3"}, "Galinsoga": {"tested_on": "Galinsoga", "assay": "Pre-emergence bio-efficacy, weed control 27 DAT", "details": "27 days after treatment, G ai: imazamox 105, rimsulfuron 70, pendimethalin 4270, mesotrione 210", "procedure": "as §1, §3"}, "Yellow Nutsedge": {"tested_on": "Yellow Nutsedge", "assay": "Pre-emergence bio-efficacy, weed control 27 DAT", "details": "27 days after treatment, G ai: imazamox 105, rimsulfuron 70, pendimethalin 4270, mesotrione 210", "procedure": "as §1, §3"}}}
{"smiles": "CS(=O)(=O)c1ccc(C(=O)C2C(=O)CCCC2=O)c([N+](=O)[O-])c1", "note": "[Mesotrione]", "values": [{"measurement": "Control 85 DAT (%) Geranium spp.", "setting": "Geranium spp.", "result": 5, "unit": "%"}, {"measurement": "Control 85 DAT (%) Dandelion", "setting": "Dandelion", "result": 8, "unit": "%"}, {"measurement": "Control 85 DAT (%) Red Sorrel", "setting": "Red Sorrel", "result": 8, "unit": "%"}]}
{"smiles": "COCc1cnc(C2=NC(C)(C(C)C)C(=O)N2)c(C(=O)O)c1", "note": "(stereo not shown) [Imazamox]", "values": [{"measurement": "Control 85 DAT (%) Geranium spp.", "setting": "Geranium spp.", "result": 8, "unit": "%"}, {"measurement": "Control 85 DAT (%) Dandelion", "setting": "Dandelion", "result": 5, "unit": "%"}, {"measurement": "Control 85 DAT (%) Red Sorrel", "setting": "Red Sorrel", "result": 13, "unit": "%"}, {"measurement": "Control 27 DAT (%) Common Ragweed", "setting": "Common Ragweed", "result": 63, "unit": "%"}, {"measurement": "Control 27 DAT (%) Giant Foxtail", "setting": "Giant Foxtail", "result": 58, "unit": "%"}, {"measurement": "Control 27 DAT (%) Galinsoga", "setting": "Galinsoga", "result": 53, "unit": "%"}, {"measurement": "Control 27 DAT (%) Yellow Nutsedge", "setting": "Yellow Nutsedge", "result": 40, "unit": "%"}]}
{"smiles": "CCS(=O)(=O)c1cccnc1S(=O)(=O)NC(=O)Nc1nc(OC)cc(OC)n1", "note": "[Rimsulfuron]", "values": [{"measurement": "Control 85 DAT (%) Geranium spp.", "setting": "Geranium spp.", "result": 28, "unit": "%"}, {"measurement": "Control 85 DAT (%) Dandelion", "setting": "Dandelion", "result": 45, "unit": "%"}, {"measurement": "Control 85 DAT (%) Red Sorrel", "setting": "Red Sorrel", "result": 18, "unit": "%"}]}
{"smiles": "CCC(CC)Nc1c([N+](=O)[O-])cc(C)c(C)c1[N+](=O)[O-]", "note": "[Pendimethalin]", "values": [{"measurement": "Control 85 DAT (%) Geranium spp.", "setting": "Geranium spp.", "result": 18, "unit": "%"}, {"measurement": "Control 85 DAT (%) Dandelion", "setting": "Dandelion", "result": 20, "unit": "%"}, {"measurement": "Control 85 DAT (%) Red Sorrel", "setting": "Red Sorrel", "result": 15, "unit": "%"}]}
